In US9393193B2, “Compositions for controlling heartworm infestation” (CEVA SANTA ANIMALE, priority 2010, dated 2016):

Experiments:
Dirofilaria = assay: Effective plasma rate of ivermectin established by the applicant; type: in vivo
Excerpt: Thus, the formulations according to the present invention provide a long term protection, e.g., at least 6 months for the collar, strip collar, or medallion formulation against infections caused by parasites.

Dirofilaria larvae = details: cited from earlier work
[1] = beagle dogs, cited from earlier work
[2] = 14-week oral, cited from earlier work
[3] = estimated from reports from non recommended use; cited from earlier work

In the case of ivermectin, the “Effective rate of ivermectin in the plasma” value (Dirofilaria) is listed as “around 0.1 ng/mL”, the “Effective rate of ivermectin in the plasma” value (Dirofilaria larvae; Cunningham C P et al., Am. J. Vet. Res., 2006) is listed as at least 0.2 ng/mL and the “Effect on one month aged Dirofilaria larvae” value (Dirofilaria larvae; ivermectin per se at 6 mcg/kg) is listed as “able to kill efficiency one month aged Dirofilaria larvae”. For the same substance, the “Time course of H2B1a concentration in plasma” value ([1]; oral 0.5 and 2.0 mg/kg bw) was “reached steady-state after about three weeks”, the “Average increase in plasma levels on a four-fold increase in the dose” value ([1]; oral 0.5 vs 2.0 mg/kg bw) was “eight-fold increase” and the “Severe findings, dogs killed prior to the end of the study” value ([2]; 2.0 mg/kg bw group, four dogs) was “tremors, ataxia, anorexia and dehydration”. For the same substance, the Findings observed ([2]; 1.0 and 2.0 mg/kg bw, beagle dogs) was “mydriasis and slight weight loss”, the “No Observable Effect Level (NOEL)” value ([2]; beagle dogs) was 0.5 mg/kg bw and the “Share of collie dogs highly sensitive to ivermectin” value [3] was “Approximately 30%”.
